These results are taken from ChEMBL document CHEMBL5316325, “Design and Synthesis of 3-Hydroxy-pyridin-4(1H)-ones-Ciprofloxacin Conjugates as Dual Antibacterial and Antibiofilm Agents against Pseudomonas aeruginosa” (J Med Chem, 2023).

Values after ≈ are worked out from the molar mass of the structure shown. Active and inactive are the calls of the source. The calls are words filed in the database; no cut-off is given here.

The subject of data set [1] is Pseudomonas aeruginosa. Put plainly: Antibiofilm activity against Pseudomonas aeruginosa PAO1 in ABTGC medium assessed as biofilm biomass at 1/4 times MIC incubated for 24 hrs by crystal violet staining based assay relative to control. It counts as functional.
The test system of data set [2] is Pseudomonas aeruginosa. The experiment in a line: Antibacterial activity against Pseudomonas aeruginosa ATCC 27853 in MHB medium assessed as bacterial growth inhibition by CLSI based broth microdilution method. Format: functional. (Broth dilution looks for growth in wells or tubes with falling amounts of substance.)
For data set [3], the system named is Pseudomonas aeruginosa. Put plainly: Antibacterial activity against Pseudomonas aeruginosa PAO1 in MHB medium assessed as bacterial growth inhibition by CLSI based broth microdilution method. Format: functional.
Data set [4] concerns Pseudomonas aeruginosa. The experiment in a line: Antibacterial activity against Pseudomonas aeruginosa FB in MHB medium assessed as bacterial growth inhibition by CLSI based broth microdilution method. It counts as functional.
For data set [5], the system named is Pseudomonas aeruginosa. Put plainly: Antibacterial activity against Pseudomonas aeruginosa 1167 in MHB medium assessed as bacterial growth inhibition by CLSI based broth microdilution method. Format: functional.
For data set [6], the system named is Pseudomonas aeruginosa. The experiment in a line: Antibacterial activity against Pseudomonas aeruginosa 1121 in MHB medium assessed as bacterial growth inhibition by CLSI based broth microdilution method. Format: functional.
Data set [7] relates to Pseudomonas aeruginosa. The experiment in a line: Antibacterial activity against Pseudomonas aeruginosa 1129 in MHB medium assessed as bacterial growth inhibition by CLSI based broth microdilution method. Format: functional.
For a further data set, the system named is Escherichia coli. Put plainly: Antibacterial activity against Escherichia coli ATCC 25922 in MHB medium assessed as bacterial growth inhibition by CLSI based broth microdilution method. It counts as functional.
The test system of a further data set is Klebsiella pneumoniae. The experiment in a line: Antibacterial activity against Klebsiella pneumoniae ATCC 700603 in MHB medium assessed as bacterial growth inhibition by CLSI based broth microdilution method. It counts as functional.
The subject of data set [8] is Staphylococcus aureus. Put plainly: Antibacterial activity against Staphylococcus aureus ATCC 25923 in MHB medium assessed as bacterial growth inhibition by CLSI based broth microdilution method. Format: functional.
Data set [9] concerns Staphylococcus aureus. Put plainly: Antibacterial activity against methicillin-resistant Staphylococcus aureus ATCC 515992 in MHB medium assessed as bacterial growth inhibition by CLSI based broth microdilution method. It counts as functional.
Data set [10] deals with Pseudomonas aeruginosa. Put plainly: Antibacterial activity against Pseudomonas aeruginosa assessed as inhibition of virulence release at 4 ug/ml. It counts as functional, organism-based. The conditions noted are these: dose 4.0 µg/ml.
The test system of data set [11] is Pseudomonas aeruginosa. The experiment in a line: Antibacterial activity against Pseudomonas aeruginosa PAO1 in ABTGC medium assessed as bacterial growth inhibition. It counts as functional.
Data set [12] concerns Pseudomonas aeruginosa. Put plainly: Antibiofilm activity against Pseudomonas aeruginosa PAO1 in ABTGC medium assessed as biofilm biomass at 1/2 times MIC incubated for 24 hrs by crystal violet staining based assay relative to control. Format: functional.
Data set [13] relates to Pseudomonas aeruginosa. Put plainly: Antibiofilm activity against Pseudomonas aeruginosa PAO1 in ABTGC medium assessed as biofilm biomass at MIC incubated for 24 hrs by crystal violet staining based assay relative to control. Format: functional.
The subject of data set [14] is Pseudomonas aeruginosa. The experiment in a line: Antibiofilm activity against Pseudomonas aeruginosa PAO1 assessed as biofilm eradication at 4 times MIC incubated for 24 hrs by crystal violet staining based assay relative to control. Format: functional.
In data set [15] the test system is Pseudomonas aeruginosa. The experiment in a line: Antibiofilm activity against Pseudomonas aeruginosa PAO1 assessed as biofilm eradication at high concentration incubated for 36 hrs by crystal violet staining based assay. It counts as functional, organism-based.
For data set [16], the system named is Pseudomonas aeruginosa. The experiment in a line: Antibiofilm activity against Pseudomonas aeruginosa PAO1 in ABTGC medium assessed as biofilm biomass at MIC incubated for 24 hrs in presence of 10 uM Fe by crystal violet staining based assay relative to control. It counts as functional.
For the next data set, the system named is HEK293. Put plainly: Cytotoxicity against HEK293 cells at 50 to 100 uM incubated for 48 hrs by MTT assay relative to control. It counts as toxicity, cell-based. The conditions noted are these: human, hek293, 48 h, dose 50-100 µM. In general terms: Tetrazolium assays rely on reduction of a dye to a coloured formazan, in cell work by metabolically active cells.

Data set [17] can be described thus: Toxicity in Caenorhabditis elegans assessed as survival rate at 50 to 100 uM measured after 48 hrs by bright field microscopy. The conditions noted are these: dose 50-100 µM.
Data set [18] relates to Pseudomonas aeruginosa. Put plainly: Antibiofilm activity against Pseudomonas aeruginosa PAO1 assessed as decrease in rhamnolipid level at 15 uM by absorbance based assay. Format: functional, organism-based.
In data set [19] the test system is Pseudomonas aeruginosa. The experiment in a line: Antibiofilm activity against Pseudomonas aeruginosa PAO1 assessed as decrease in pyocyanin level at 15 uM by absorbance based assay. Format: functional, organism-based.
Data set [20] concerns Pseudomonas aeruginosa. The experiment in a line: Antibiofilm activity against Pseudomonas aeruginosa PAO1 assessed as inhibition of bacterial motility at 15 uM incubated for 16 hrs relative to control. Format: functional, organism-based.

The MIC is the lowest concentration that inhibits growth of the organism. Consider `Cc1cc(=O)c(O)c(CNC(=O)CCC(N)(CCC(=O)NCc2c(O)c(=O)cc(C)n2C)CCC(=O)NCc2c(O)c(=O)cc(C)n2C)n1C`, for which the Activity came to 99.8% in the data set on Pseudomonas aeruginosa [1], 346.5% in the data set on Pseudomonas aeruginosa [12] and 315.1% in the data set on Pseudomonas aeruginosa [13]. Further, the MIC with Pseudomonas aeruginosa [2], in the data set on Pseudomonas aeruginosa [3], in the data set with Pseudomonas aeruginosa [4], with Pseudomonas aeruginosa [5], with Pseudomonas aeruginosa [6] and with Pseudomonas aeruginosa [7] was greater than 200 µM throughout. In addition, the MIC with Escherichia coli, with Klebsiella pneumoniae, with Staphylococcus aureus [8], with Staphylococcus aureus [9] and in the data set with Pseudomonas aeruginosa [11] was greater than 200 µM throughout. Moreover, in the data set with Pseudomonas aeruginosa [10], the inhibition result was “inactive”.

On to `O=C(O)c1cn(C2CC2)c2cc(N3CCNCC3)c(F)cc2c1=O` [CIPROFLOXACIN], for which the Activity was 109.5% with Pseudomonas aeruginosa [13]; 23.6% with Pseudomonas aeruginosa [14]; 109.5% in the data set on Pseudomonas aeruginosa [16]; 40% in the data set on HEK293; “Non-Toxic” in data set [17]. Moreover, in the data set on Pseudomonas aeruginosa [15], the outcome was inactive.

For the compound `Cc1cc(=O)c(O)c(CNC(=O)CCC(CCC(=O)NCc2c(O)c(=O)cc(C)n2C)(CCC(=O)NCc2c(O)c(=O)cc(C)n2C)NC(=O)CCCC(=O)N2CCN(c3cc4c(cc3F)c(=O)c(C(=O)O)cn4C3CC3)CC2)n1C`, the results for the Activity with Pseudomonas aeruginosa [1], in the data set with Pseudomonas aeruginosa [12] and in the data set with Pseudomonas aeruginosa [13] were 26.1%, 79.3% and 12.7%, respectively. Further, the MIC was 7.11 µM (≈ 8 µg/mL) with Pseudomonas aeruginosa [2]; 1.78 µM (≈ 2 µg/mL) in the data set on Pseudomonas aeruginosa [3]; 3.55 µM (≈ 3.99 µg/mL) with Pseudomonas aeruginosa [4]; 1.78 µM (≈ 2 µg/mL) in the data set with Pseudomonas aeruginosa [5]; 3.55 µM (≈ 3.99 µg/mL) with Pseudomonas aeruginosa [6]; 7.11 µM (≈ 8 µg/mL) with Pseudomonas aeruginosa [7]. Further, the MIC in the data set on Escherichia coli is 0.22 µM (≈ 0.248 µg/mL); in the data set on Klebsiella pneumoniae, 14.2 µM (≈ 16 µg/mL); in the data set on Staphylococcus aureus [8], 14.2 µM (≈ 16 µg/mL); in the data set on Staphylococcus aureus [9], greater than 200 µM; in the data set on Pseudomonas aeruginosa [11] it was 14.2 µM (≈ 16 µg/mL).

For the compound `Cn1cc(O)c(=O)cc1Cn1cc(CCC(=O)N2CCN(c3cc4c(cc3F)c(=O)c(C(=O)O)cn4C3CC3)CC2)nn1`, the Activity in the data set on Pseudomonas aeruginosa [1] was 99.4%; in the data set on Pseudomonas aeruginosa [12], 133.7%; in the data set on Pseudomonas aeruginosa [13], 52.1%. For the same compound, the MIC in the data set on Pseudomonas aeruginosa [2] came out at 108 µM (≈ 64 µg/mL); in the data set with Pseudomonas aeruginosa [3], 27.1 µM (≈ 16 µg/mL); in the data set with Pseudomonas aeruginosa [4], 108 µM (≈ 64 µg/mL); in the data set on Pseudomonas aeruginosa [5] it was 54.1 µM (≈ 32 µg/mL); in the data set on Pseudomonas aeruginosa [6], 108 µM (≈ 64 µg/mL); in the data set on Pseudomonas aeruginosa [7] it was 108 µM (≈ 64 µg/mL). The minimal inhibitory concentration (MIC) was 3.38 µM (≈ 2 µg/mL) in the data set with Escherichia coli; greater than 200 µM in the data set with Klebsiella pneumoniae; greater than 200 µM in the data set on Staphylococcus aureus [8]; greater than 200 µM in the data set with Staphylococcus aureus [9]; greater than 200 µM in the data set on Pseudomonas aeruginosa [11].

As to `Cc1cc(=O)c(O)c(CNC(=O)CCC(CCC(=O)NCc2c(O)c(=O)cc(C)n2C)(CCC(=O)NCc2c(O)c(=O)cc(C)n2C)NC(=O)CCC(=O)N2CCN(c3cc4c(cc3F)c(=O)c(C(=O)O)cn4C3CC3)CC2)n1C`, the Activity was 211.1% in the data set on Pseudomonas aeruginosa [1], 20.9% with Pseudomonas aeruginosa [12] and 20.7% in the data set with Pseudomonas aeruginosa [13]. Besides, the MIC turned out to be 7.2 µM (≈ 8 µg/mL) in the data set with Pseudomonas aeruginosa [2]; 14.4 µM (≈ 16 µg/mL) in the data set with Pseudomonas aeruginosa [3]; 28.8 µM (≈ 32 µg/mL) in the data set on Pseudomonas aeruginosa [4]; 14.4 µM (≈ 16 µg/mL) with Pseudomonas aeruginosa [5]; 28.8 µM (≈ 32 µg/mL) in the data set with Pseudomonas aeruginosa [6]; 57.6 µM (≈ 64 µg/mL) in the data set with Pseudomonas aeruginosa [7]. Besides, the MIC is 0.22 µM (≈ 0.244 µg/mL) in the data set with Escherichia coli; 14.4 µM (≈ 16 µg/mL) in the data set on Klebsiella pneumoniae; 14.4 µM (≈ 16 µg/mL) in the data set with Staphylococcus aureus [8]; greater than 200 µM in the data set with Staphylococcus aureus [9]; 115 µM (≈ 128 µg/mL) with Pseudomonas aeruginosa [11].

`O=C(CCC(=O)N1CCN(c2cc3c(cc2F)c(=O)c(C(=O)O)cn3C2CC2)CC1)NCc1ccccc1`: the Activity in the data set on Pseudomonas aeruginosa [1] was found to be 102.4%; with Pseudomonas aeruginosa [12], 97.3%; in the data set on Pseudomonas aeruginosa [13] it was 218.8%. Moreover, the MIC in the data set with Pseudomonas aeruginosa [2], with Pseudomonas aeruginosa [3], in the data set on Pseudomonas aeruginosa [4], in the data set on Pseudomonas aeruginosa [5], in the data set on Pseudomonas aeruginosa [6] and in the data set with Pseudomonas aeruginosa [7] was greater than 200 µM throughout. Further, the MIC in the data set on Escherichia coli was 15.4 µM (≈ 8 µg/mL); in the data set with Klebsiella pneumoniae it was greater than 200 µM; in the data set on Staphylococcus aureus [8] it was 30.7 µM (≈ 16 µg/mL); in the data set with Staphylococcus aureus [9] it was greater than 200 µM; in the data set with Pseudomonas aeruginosa [11], greater than 200 µM. In addition, the outcome in the data set on Pseudomonas aeruginosa [18] and in the data set with Pseudomonas aeruginosa [19] was inactive. For the same compound, the inhibition result in the data set on Pseudomonas aeruginosa [20] is “inactive”.

In the case of `Cc1cc(=O)c(O)c(CNC(=O)CCCCCCC(=O)N2CCN(c3cc4c(cc3F)c(=O)c(C(=O)O)cn4C3CC3)CC2)n1C`, the Activity in the data set with Pseudomonas aeruginosa [1] is 141.1%; with Pseudomonas aeruginosa [12] it was 114.9%; in the data set with Pseudomonas aeruginosa [13] it was 99.9%. The MIC in the data set with Pseudomonas aeruginosa [2], in the data set with Pseudomonas aeruginosa [3], with Pseudomonas aeruginosa [4], in the data set on Pseudomonas aeruginosa [5], with Pseudomonas aeruginosa [6] and in the data set with Pseudomonas aeruginosa [7] was greater than 200 µM in each case. In addition, the MIC with Escherichia coli was 6.27 µM (≈ 4 µg/mL); in the data set on Klebsiella pneumoniae, greater than 200 µM; with Staphylococcus aureus [8], 50.2 µM (≈ 32 µg/mL); in the data set on Staphylococcus aureus [9], greater than 200 µM; in the data set on Pseudomonas aeruginosa [11], 128 µM (≈ 81.6 µg/mL).
